Assay results as given in ChEMBL document CHEMBL1777691, “Structure based design of novel inhibitors for histidinol dehydrogenase from Geotrichum candidum” (Bioorg Med Chem Lett, 2010).

Assay: Inhibition of Geotrichum candidum Histidinol dehydrogenase

| IC50 [µM] | SMILES |
| --- | --- |
| 10.6 | COC(=O)NC(Cc1cncn1C)C(=O)OC (stereo not drawn) |
| 24.2 | O=C1NCCc2cncn21 |
| 58.7 | O=C(O)C1Cc2c(I)nc(I)n2C(=O)N1 (stereo not drawn) |
| 122 | COC(=O)C1Cc2c(Cl)ncn2C(=O)N1 (stereo not drawn) |
| 3.17 | O=C(O)CCc1c[nH]cn1 |
| 5.2 | COC(=O)CCc1c[nH]cn1 |
| 3.56 | O=C(O)C1Cc2cncn2C(=O)N1 (stereo not drawn) |
| 29.3 | CCOC(=O)NC(Cc1cn(C)cn1)C(=O)OC (stereo not drawn) |
